Values of other authors as cited in US11910793B2, “Multifunctional agricultural adjuvant compositions” (WINFIELD SOLUTIONS, LLC, priority 2019, dated 2024).

Conditions: water at 0° C.

## N.N.O=S(=O)(O)O [AMS, ammonium sulfate]
  amount of AMS dissolvable in water: 41 wt. %
